This is an account of results in US20220033397A1, “PHARMACEUTICAL COMPOUNDS AND THEIR USE AS INHIBITORS OF UBIQUITIN SPECIFIC PROTEASE 19 (USP19)” (ALMAC DISCOVERY LIMITED, priority 2018, published 2022).

Molecules are shown by their SMILES.

This assay deals with T1, Full-length USP19 (Homo sapiens, UniProt O94966).
T1 construct: Full-length USP19 was purchased from Boston Biochem (E-576); purchased Boston Biochem E-576
T1 sequence (O94966 1-1318): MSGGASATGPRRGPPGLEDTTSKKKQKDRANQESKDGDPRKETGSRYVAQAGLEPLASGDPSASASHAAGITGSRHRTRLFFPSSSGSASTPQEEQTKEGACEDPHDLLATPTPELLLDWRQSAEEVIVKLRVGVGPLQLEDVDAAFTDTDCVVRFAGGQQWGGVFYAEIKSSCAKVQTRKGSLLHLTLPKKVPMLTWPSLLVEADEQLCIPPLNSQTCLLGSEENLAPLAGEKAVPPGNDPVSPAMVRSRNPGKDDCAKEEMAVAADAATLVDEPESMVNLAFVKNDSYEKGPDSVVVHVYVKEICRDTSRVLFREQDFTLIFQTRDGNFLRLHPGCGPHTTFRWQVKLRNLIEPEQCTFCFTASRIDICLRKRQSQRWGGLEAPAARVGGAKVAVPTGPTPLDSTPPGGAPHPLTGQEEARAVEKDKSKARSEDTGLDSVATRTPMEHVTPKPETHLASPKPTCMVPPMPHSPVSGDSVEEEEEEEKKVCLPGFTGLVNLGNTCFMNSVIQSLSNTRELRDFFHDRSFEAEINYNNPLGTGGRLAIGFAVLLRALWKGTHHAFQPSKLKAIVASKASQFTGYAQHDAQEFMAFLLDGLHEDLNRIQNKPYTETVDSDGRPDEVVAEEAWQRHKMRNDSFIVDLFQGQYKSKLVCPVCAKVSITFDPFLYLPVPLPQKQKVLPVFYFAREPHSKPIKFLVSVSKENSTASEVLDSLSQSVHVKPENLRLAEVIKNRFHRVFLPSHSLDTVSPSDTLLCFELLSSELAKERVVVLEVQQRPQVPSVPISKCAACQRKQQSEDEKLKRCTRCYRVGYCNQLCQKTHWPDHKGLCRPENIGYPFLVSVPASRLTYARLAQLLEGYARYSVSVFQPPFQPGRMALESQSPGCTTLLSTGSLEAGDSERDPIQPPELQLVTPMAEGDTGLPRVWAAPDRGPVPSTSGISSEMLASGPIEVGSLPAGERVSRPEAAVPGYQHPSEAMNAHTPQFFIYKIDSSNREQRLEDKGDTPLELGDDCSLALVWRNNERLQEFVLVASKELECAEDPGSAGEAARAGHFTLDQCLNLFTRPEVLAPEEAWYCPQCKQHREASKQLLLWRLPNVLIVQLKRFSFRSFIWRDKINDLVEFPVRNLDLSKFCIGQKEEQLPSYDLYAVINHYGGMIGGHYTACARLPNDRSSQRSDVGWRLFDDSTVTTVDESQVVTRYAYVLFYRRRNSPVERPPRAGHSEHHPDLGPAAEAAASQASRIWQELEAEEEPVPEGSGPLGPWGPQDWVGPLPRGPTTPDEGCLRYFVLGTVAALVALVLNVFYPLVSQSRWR
Description: USP19 fluorescence polarisation (FP) homogeneous assay with Ubiquitin-Lys-TAMRA substrate. Format: biochemical. Particulars: 2.5 nM USP19, 30 min pre-incubation, average of at least two duplicate experiments. The essentials: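 Full-length USP19 preincubated 30 min at RT with inhibitor (200 μM to 2 μM series, 8–18 points) before adding 500 nM Ubiquitin-Lys-TAMRA substrate.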
Turning to `C[C@H](CC(F)(F)F)C(=O)N1CCC(O)(Cn2cnc3cc(F)c(Cl)cc3c2=O)C2(CCCC2)C1` (stereo partly drawn) [Example 149, 6-Chloro-7-fluoro-3-((10-hydroxy-7-((R)-4,4,4-trifluoro-2-methylbutanoyl)-7-azaspiro[4.5]decan-10-yl)methyl)quinazolin-4(3H)-one], the IC50 was 5 to 50 µM.
As for `C[C@H](CC1CCCCC1)C(=O)N1CCC(O)(CN2C(=O)COc3cccnc32)C2(CCCC2)C1` (stereo partly drawn) [Example 35, 4-((7-((R)-3-Cyclohexyl-2-methylpropanoyl)-10-hydroxy-7-azaspiro[4.5]decan-10-yl)methyl)-2H-pyrido[3,2-b][1,4]oxazin-3(4H)-one], the 50% inhibitory concentration (IC50) lay in the range of 0.5 to 5 µM.
Then `CNc1ncc2c(=O)n(CC3(O)CCN(C(=O)[C@H](C)CC(F)(F)F)CC34CCCC4)ccc2n1` (stereo partly drawn) [Example 57, 6-((10-Hydroxy-7-((R)-4,4,4-trifluoro-2-methylbutanoyl)-7-azaspiro[4.5]decan-10-yl)methyl)-2-(methylamino)pyrido[4,3-d]pyrimidin-5(6H)-one], with 0.5 to 5 µM.
In the case of `COCC1CCN(CC2(O)CCN(C(=O)[C@H](C)CC(F)(F)F)CC23CCCC3)C(=O)C1` (stereo partly drawn) [Example 98, 1-((10-Hydroxy-7-((R)-4,4,4-trifluoro-2-methylbutanoyl)-7-azaspiro[4.5]decan-10-yl)methyl)-4-(methoxymethyl)piperidin-2-one], the IC50 was in the range of 5 to 50 µM.
For `O=C(N[C@H](c1ccccc1)C(F)(F)F)N1CC[C@@](O)(Cn2ccc(-c3ccccc3)cc2=O)C2(CCCC2)C1` [Example 309, (S)-10-Hydroxy-10-((2-oxo-4-phenylpyridin-1(2H)-yl)methyl)-N—((R)-2,2,2-trifluoro-1-phenylethyl)-7-azaspiro[4.5]decane-7-carboxamide], the IC50 was < 0.5 µM.
Consider `O=C(NCc1ccc(F)c(F)c1)N1CC[C@@](O)(Cn2cnc(-c3ccccc3)cc2=O)C2(CCCC2)C1` [Example 304, (S)—N-(3,4-Difluorobenzyl)-10-hydroxy-10-((6-oxo-4-phenylpyrimidin-1(6H)-yl)methyl)-7-azaspiro[4.5]decane-7-carboxamide], for which the half-maximal inhibitory concentration (IC50) is < 0.5 µM.
For `CCn1cc2c(=O)n(CC3(O)CCN(C(=O)[C@H](C)CC4CCCCC4)CC34CCCC4)cnc2n1` (stereo partly drawn) [Example 152, 5-((7-((R)-3-Cyclohexyl-2-methylpropanoyl)-10-hydroxy-7-azaspiro[4.5]decan-10-yl)methyl)-2-ethyl-2,5-dihydro-4H-pyrazolo[3,4-d]pyrimidin-4-one], the IC50 lay within 50 to 250 µM.
For `O=C(N1CC[C@@](O)(Cn2cnc(N3CCCC3)cc2=O)C2(CCCC2)C1)N1CCNC[C@H]1c1ccccc1` [Example 290, 3-(((S)-10-Hydroxy-7-((R)-2-phenylpiperazine-1-carbonyl)-7-azaspiro[4.5]decan-10-yl)methyl)-6-(pyrrolidin-1-yl)pyrimidin-4(3H)-one], the IC50 is < 0.5 µM.
As to `O=C(NCc1ccccc1)N1CCC(O)(Cn2ccc(-c3ccccc3)cc2=O)C2(CCCC2)C1` (stereo not shown) [Example 192, N-Benzyl-10-hydroxy-10-((2-oxo-4-phenylpyridin-1(2H)-yl)methyl)-7-azaspiro[4.5]decane-7-carboxamide], the IC50 is < 0.5 µM.
On to `CN(CC1CC(F)C1)C(=O)N1CCC(O)(Cn2cnc(-c3ccccc3)cc2=O)C2(CCCC2)C1` (stereo not shown) [Example 239, N-((3-Fluorocyclobutyl)methyl)-10-hydroxy-N-methyl-10-((6-oxo-4-phenylpyrimidin-1(6H)-yl)methyl)-7-azaspiro[4.5]decane-7-carboxamide], for which the IC50 lay in the range of 5 to 50 µM.
Then `CCn1ncc2c(=O)n(CC3(O)CCN(C(=O)[C@H](C)CC(F)(F)F)CC34CCCC4)cnc21` (stereo partly drawn) [Example 141, 1-Ethyl-5-((10-hydroxy-7-((R)-4,4,4-trifluroo-2-methylbutanoyl)-7-azaspiro[4.5]decan-10-yl)methyl)-1,5-dihydro-4H-pyrazolo[3,4-d]pyrimidin-4-one], with 5 to 50 µM; and `C[C@H](CC1CCCCC1)C(=O)N1CCC(O)(Cn2cc([S+](C)[O-])c(Cl)cc2=O)C2(CCCC2)C1` (stereo partly drawn) [Example 70, 4-Chloro-1-((7-((R)-3-cyclohexyl-2-methylpropanoyl)-10-hydroxy-7-azaspiro[4.5]decan-10-yl)methyl)-5-(methylsulfinyl)pyridin-2(1H)-one], with < 0.5 µM.
Then `C[C@H](CC(F)(F)F)C(=O)N1CCC(O)(Cn2ccc3nc(N4CCOCC4)ncc3c2=O)C2(CCCC2)C1` (stereo partly drawn) [Example 60, 6-((10-Hydroxy-7-((R)-4,4,4-trifluoro-2-methylbutanoyl)-7-azaspiro[4.5]decan-10-yl)methyl)-2-morpholinopyrido[4,3-d]pyrimidin-5(6H)-one], with 0.5 to 5 µM; and `CC(=O)N1CCN(CC2(O)CCN(C(=O)[C@H](C)CC3CCCCC3)CC23CCCC3)C(=O)C1` (stereo partly drawn) [Example 48, 4-Acetyl-1-((7-((R)-3-cyclohexyl-2-methylpropanoyl)-10-hydroxy-7-azaspiro[4.5]decan-10-yl)methyl)piperazin-2-one], with < 0.5 µM; and `CC(Cc1ccccc1)C(=O)N1CCC(O)(CN2CC(Cc3ccccc3)CC2=O)C(C)(C)C1` (stereo not shown) [Example 44, 4-Benzyl-1-((4-hydroxy-3,3-dimethyl-1-(2-methyl-3-phenylpropanoyl)piperidin-4-yl)methyl)pyrrolidin-2-one], with 50 to 250 µM.
As to `O=C(N1CC[C@@](O)(Cn2cnc(-c3ccccc3)cc2=O)C2(CCCC2)C1)N1CCC[C@H]1c1ccccc1` [Example 213, 3-(((S)-10-Hydroxy-7-((S)-2-phenylpyrrolidine-1-carbonyl)-7-azaspiro[4.5]decan-10-yl)methyl)-6-phenylpyrimidin-4(3H)-one], the IC50 is < 0.5 µM.
Then `N=S1(=O)CCN(C(=O)N2CC[C@@](O)(Cn3cnc(-c4ccccc4)cc3=O)C3(CCCC3)C2)C(c2ccccc2)C1` (stereo partly drawn) [Example 334, 3-(((10S)-10-Hydroxy-7-(1-imino-1-oxido-3-phenyl-1λ^6-thiomorpholine-4-carbonyl)-7-azaspiro[4.5]decan-10-yl)methyl)-6-phenylpyrimidin-4(3H)-one], with < 0.5 µM.
Then `C[C@H](CC1CCCCC1)C(=O)N1CCC(O)(Cn2ccc3nccnc3c2=O)C2(CCCC2)C1` (stereo partly drawn) [Example 150, 6-((7-((R)-3-Cyclohexyl-2-methylpropanoyl)-10-hydroxy-7-azaspiro[4.5]decan-10-yl)methyl)pyrido[3,4-b]pyrazin-5(6H)-one], with 50 to 250 µM.
As to `O=C(N1CC[C@@](O)(Cn2cnc(-c3ccc4c(c3)OCC4)cc2=O)C2(CCCC2)C1)N1CCNC[C@H]1c1ccccc1` [Example 353, 6-(2,3-Dihydrobenzofuran-6-yl)-3-(((S)-10-hy-droxy-7-((R)-2-phenylpiperazine-1-carbonyl)-7-aza-spiro[4.5]decan-10-yl)methyl)pyrimidin-4(3H)-one], the IC50 is < 0.5 µM.
As to `O=C(N1CC[C@@](O)(Cn2cnc(-c3ccccc3)cc2=O)C2(CCCC2)C1)N1CCNCC1c1ccc(C(F)(F)F)cc1` (stereo partly drawn) [Example 336, 3-(((10S)-10-Hydroxy-7-(2-(4-(trifluoromethyl)phenyl)piperazine-1-carbonyl)-7-azaspiro[4.5]decan-10-yl)methyl)-6-phenylpyrimidin-4(3H)-one], the IC50 was < 0.5 µM.
Consider `COc1ccc2ccn(CC3(O)CCN(C(=O)[C@H](C)CC(F)(F)F)CC34CCCC4)c(=O)c2c1` (stereo partly drawn) [Example 122, 2-((10-Hydroxy-7-((R)-4,4,4-trifluoro-2-methylbutanoyl)-7-azaspiro[4.5]decan-10-yl)methyl)-7-methoxyisoquinolin-1(2H)-one], for which the IC50 fell in the range of 50 to 250 µM.
Then `O=C(N1CC[C@@](O)(Cn2cnc(N3CCCCC3)cc2=O)C2(CCCC2)C1)N1CCNC[C@H]1c1ccccc1` [Example 348, 3-(((S)-10-Hydroxy-7-((R)-2-phenylpiperazine-1-carbonyl)-7-aza-spiro[4.5]decan-10-yl)methyl)-6-(piperi-din-1-yl)pyrimidin-4(3H)-one], with < 0.5 µM.
